Results taken from patent publication US9060529B2, “Method for treatment of lacto-N-biose-containing solution” (Morinaga Milk Industry Co., Ltd., priority 2010, dated 2015).

Assays:
[1] = Test Example 3: effect of heating temperature and time on stability of LNB at various pH (2% LNB in buffer, TLC); format: physicochemical; set-up: key to extent of decomposition: −: no decomposition; ±: slight decomposition; +: partial decomposition; ++: majority decomposition; +++: almost total decomposition; settings: for stability of LNB (decomposition by TLC): 65-120° C., 5-60 minutes
Description: Samples of the LNB powder prepared in the above Production Example 1 were dissolved at a concentration of 2% in a 0.1 M citrate buffer solution (pH: 5.5, 5.0, 4.0, 3.0) to prepare a series of liquid compositions containing LNB. Further, a portion of the LNB solution having a pH of 3.0 was used to prepare solutions having a pH of 2.0 or 1.0 by adding 1 M hydrochloric acid.
In a separate preparation, a sample of the LNB powder was dissolved at a concentration of 2% in a 0.1 M phosphate buffer having a pH of 7.0 to prepare a liquid composition containing LNB.
Sets containing the liquid compositions containing LNB at each pH value were each heated at a predetermined temperature (65, 70, 80, 90, 100 or 120° C.) for a predetermined period of time (5, 10, 20, 30 or 60 minutes).
Each of the heated liquid compositions containing LNB was cooled, and the same method as that described for Test Example 1 was used to determine whether or not decomposition had occurred, and if so, the extent of that decomposition. Based on the results, the extent of decomposition was evaluated against the criteria listed below.
• − no decomposition • ± slight decomposition • + partial decomposition • ++ majority decomposition • +++ almost total decomposition 2) Test Results: […]

[2] = Examples 1-3: TLC analysis of heated liquid preparations containing LNB; format: physicochemical
Description: Each of the heated samples was cooled to 15° C., and 1 μL was then spotted onto a silica gel thin layer chromatography (TLC) plate. The plate was developed using an 80% acetonitrile solvent, and was then immersed in a 5% sulfuric acid solution and colorized by heating in an oven. The existence or absence of decomposed or denatured products (N-acetylglucosamine dehydrate and galactose) and the amount of those decomposed or denatured products were evaluated visually to determine whether or not decomposition had occurred, and if so, the extent of that decomposition.
100 g of the LNB powder prepared in the above Production Example 1 was dissolved in 9.9 kg of purified water, and 0.1 M hydrochloric acid was added to the solution to adjust the pH to 4.5. The resulting aqueous solution was preheated for 3 minutes at 70° C. using a UHT sterilizer (manufactured by Morinaga Engineering Co., Ltd.), subsequently sterilized at 130° C. for 2 seconds, and then cooled to 15° C., yielding 10 kg of a liquid preparation containing LNB.
100 g of the LNB powder prepared in the above Production Example 1 was added to 9.9 kg of a commercially available orange juice (manufactured by Morinaga Milk Industry Co., Ltd.), and the resulting mixture was heated at 80° C. for 15 minutes and then cooled to 15° C. 100 mL aliquots of the juice were used to fill glass bottles, which were then sealed, yielding 100 bottles of orange juice containing LNB.
100 g of the LNB powder prepared in the above Production Example 1 was dissolved in 9.9 kg of purified water, and 0.1 M citric acid was added to the solution to adjust the pH to 5.0. The resulting aqueous solution was heated at 90° C. for 30 minutes, and then cooled to 15° C., yielding 10 kg of a liquid preparation containing LNB.

CC(=O)N[C@H]1C(O)O[C@H](CO)[C@@H](O)[C@@H]1O[C@@H]1O[C@H](CO)[C@H](O)[C@H](O)[C@H]1O (stereo partly drawn) [LNB, Lacto-N-biose]
extent of decomposition ([1]; pH 4.0, 65° C., 5 minutes): −
extent of decomposition ([1]; pH 4.0, 65° C., 10 minutes): −
extent of decomposition ([1]; pH 4.0, 65° C., 20 minutes): −
extent of decomposition ([1]; pH 4.0, 65° C., 30 minutes): −
extent of decomposition ([1]; pH 4.0, 65° C., 60 minutes): −
extent of decomposition ([1]; pH 4.0, 70° C., 5 minutes): −
extent of decomposition ([1]; pH 4.0, 70° C., 10 minutes): −
extent of decomposition ([1]; pH 4.0, 70° C., 20 minutes): −
extent of decomposition ([1]; pH 4.0, 70° C., 30 minutes): −
extent of decomposition ([1]; pH 4.0, 70° C., 60 minutes): −
extent of decomposition ([1]; pH 4.0, 80° C., 5 minutes): −
extent of decomposition ([1]; pH 4.0, 80° C., 10 minutes): −
extent of decomposition ([1]; pH 4.0, 80° C., 20 minutes): −
extent of decomposition ([1]; pH 4.0, 80° C., 30 minutes): −
extent of decomposition ([1]; pH 4.0, 80° C., 60 minutes): −
extent of decomposition ([1]; pH 4.0, 90° C., 5 minutes): −
extent of decomposition ([1]; pH 4.0, 90° C., 10 minutes): −
extent of decomposition ([1]; pH 4.0, 90° C., 20 minutes): −
extent of decomposition ([1]; pH 4.0, 90° C., 30 minutes): −
extent of decomposition ([1]; pH 4.0, 90° C., 60 minutes): −
extent of decomposition ([1]; pH 4.0, 100° C., 5 minutes): −
extent of decomposition ([1]; pH 4.0, 100° C., 10 minutes): −
extent of decomposition ([1]; pH 4.0, 100° C., 20 minutes): −
extent of decomposition ([1]; pH 4.0, 100° C., 30 minutes): −
extent of decomposition ([1]; pH 4.0, 100° C., 60 minutes): −
extent of decomposition ([1]; pH 4.0, 120° C., 5 minutes): −
extent of decomposition ([1]; pH 4.0, 120° C., 10 minutes): −
extent of decomposition ([1]; pH 4.0, 120° C., 20 minutes): −
extent of decomposition ([1]; pH 4.0, 120° C., 30 minutes): −
extent of decomposition ([1]; pH 4.0, 120° C., 60 minutes): −
extent of decomposition ([1]; pH 5.0, 65° C., 5 minutes): −
extent of decomposition ([1]; pH 5.0, 65° C., 10 minutes): −
extent of decomposition ([1]; pH 5.0, 65° C., 20 minutes): −
extent of decomposition ([1]; pH 5.0, 65° C., 30 minutes): −
extent of decomposition ([1]; pH 5.0, 65° C., 60 minutes): −
extent of decomposition ([1]; pH 5.0, 70° C., 5 minutes): −
extent of decomposition ([1]; pH 5.0, 70° C., 10 minutes): −
extent of decomposition ([1]; pH 5.0, 70° C., 20 minutes): −
extent of decomposition ([1]; pH 5.0, 70° C., 30 minutes): −
extent of decomposition ([1]; pH 5.0, 70° C., 60 minutes): −
extent of decomposition ([1]; pH 5.0, 80° C., 5 minutes): −
extent of decomposition ([1]; pH 5.0, 80° C., 10 minutes): −
extent of decomposition ([1]; pH 5.0, 80° C., 20 minutes): −
extent of decomposition ([1]; pH 5.0, 80° C., 30 minutes): −
extent of decomposition ([1]; pH 5.0, 80° C., 60 minutes): −
extent of decomposition ([1]; pH 5.0, 90° C., 5 minutes): −
extent of decomposition ([1]; pH 5.0, 90° C., 10 minutes): −
extent of decomposition ([1]; pH 5.0, 90° C., 20 minutes): −
extent of decomposition ([1]; pH 5.0, 90° C., 30 minutes): −
extent of decomposition ([1]; pH 5.0, 90° C., 60 minutes): −
extent of decomposition ([1]; pH 5.0, 100° C., 5 minutes): −
extent of decomposition ([1]; pH 5.0, 100° C., 10 minutes): −
extent of decomposition ([1]; pH 5.0, 100° C., 20 minutes): −
extent of decomposition ([1]; pH 5.0, 100° C., 30 minutes): −
extent of decomposition ([1]; pH 5.0, 100° C., 60 minutes): ±
extent of decomposition ([1]; pH 5.0, 120° C., 5 minutes): −
extent of decomposition ([1]; pH 5.0, 120° C., 10 minutes): −
extent of decomposition ([1]; pH 5.0, 120° C., 20 minutes): ±
extent of decomposition ([1]; pH 5.0, 120° C., 30 minutes): ±
extent of decomposition ([1]; pH 5.0, 120° C., 60 minutes): ±
extent of decomposition ([1]; pH 5.5, 65° C., 5 minutes): −
extent of decomposition ([1]; pH 5.5, 65° C., 10 minutes): −
extent of decomposition ([1]; pH 5.5, 65° C., 20 minutes): −
extent of decomposition ([1]; pH 5.5, 65° C., 30 minutes): −
extent of decomposition ([1]; pH 5.5, 65° C., 60 minutes): −
extent of decomposition ([1]; pH 5.5, 70° C., 5 minutes): −
extent of decomposition ([1]; pH 5.5, 70° C., 10 minutes): −
extent of decomposition ([1]; pH 5.5, 70° C., 20 minutes): −
extent of decomposition ([1]; pH 5.5, 70° C., 30 minutes): −
extent of decomposition ([1]; pH 5.5, 70° C., 60 minutes): −
extent of decomposition ([1]; pH 5.5, 80° C., 5 minutes): −
extent of decomposition ([1]; pH 5.5, 80° C., 10 minutes): −
extent of decomposition ([1]; pH 5.5, 80° C., 20 minutes): −
extent of decomposition ([1]; pH 5.5, 80° C., 30 minutes): −
extent of decomposition ([1]; pH 5.5, 80° C., 60 minutes): −
extent of decomposition ([1]; pH 5.5, 90° C., 5 minutes): −
extent of decomposition ([1]; pH 5.5, 90° C., 10 minutes): −
extent of decomposition ([1]; pH 5.5, 90° C., 20 minutes): −
extent of decomposition ([1]; pH 5.5, 90° C., 30 minutes): −
extent of decomposition ([1]; pH 5.5, 90° C., 60 minutes): ±
extent of decomposition ([1]; pH 5.5, 100° C., 5 minutes): −
extent of decomposition ([1]; pH 5.5, 100° C., 10 minutes): −
extent of decomposition ([1]; pH 5.5, 100° C., 20 minutes): −
extent of decomposition ([1]; pH 5.5, 100° C., 30 minutes): ±
extent of decomposition ([1]; pH 5.5, 100° C., 60 minutes): +
extent of decomposition ([1]; pH 5.5, 120° C., 5 minutes): −
extent of decomposition ([1]; pH 5.5, 120° C., 10 minutes): ±
extent of decomposition ([1]; pH 5.5, 120° C., 20 minutes): +
extent of decomposition ([1]; pH 5.5, 120° C., 30 minutes): +
extent of decomposition ([1]; pH 5.5, 120° C., 60 minutes): +
extent of decomposition ([1]; pH 7.0, 100° C., 5 minutes): +
extent of decomposition ([1]; pH 7.0, 100° C., 10 minutes): +
extent of decomposition ([1]; pH 7.0, 100° C., 20 minutes): ++
extent of decomposition ([1]; pH 7.0, 100° C., 30 minutes): ++
extent of decomposition ([1]; pH 7.0, 100° C., 60 minutes): +++
extent of decomposition ([1]; pH 7.0, 120° C., 5 minutes): ++
extent of decomposition ([1]; pH 7.0, 120° C., 10 minutes): +++
extent of decomposition ([1]; pH 7.0, 120° C., 20 minutes): +++
extent of decomposition ([1]; pH 7.0, 120° C., 30 minutes): +++
extent of decomposition ([1]; pH 7.0, 120° C., 60 minutes): +++
stability of LNB (decomposition by TLC) ([1]; pH 7.0 or 1.0): decomposition occurred even after heating for 5 minutes
stability of LNB (decomposition by TLC) ([1]; pH not less than 2.0 to not more than 5.5): stable and underwent almost no decomposition
decomposition of LNB (TLC) ([2]; Example 1: aqueous solution pH 4.5, 70° C. for 3 minutes, then 130° C. for 2 seconds): had not decomposed
decomposition of LNB (TLC) ([2]; Example 2: orange juice pH 4.51, 80° C. for 15 minutes): had not decomposed
decomposition of LNB (TLC) ([2]; Example 3: aqueous solution pH 5.0 (citric acid), 90° C. for 30 minutes): had not decomposed
